Reference: PubChem BioAssay AID1963979 (Molecular Pharmacology Branch, DTP, NCI, 2024)

Test system: 361931-004-R-J1-PDC multicell spheroid viability
Assay: Anticancer human tumor 361931-004-R-J1-PDC patient-derived colon adenocarcinoma cell line growth inhibition [PI3K]
Conditions: for IC50: curve of first compound; for viability, T/C: stronger effect = lower value
How it was run: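 Three cell types, namely tumor cells, endothelial cells and mesenchymal stem cells, formed each spheroid. Combinations with four PI3K inhibitors were screened at clinically achievable concentrations decreasing by half-log, and spheroid viability was recorded.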

[1] = second compound 0.0316 µM, first compound 0.0316 µM
[2] = second compound 0.0316 µM, first compound 0.1 µM
[3] = second compound 0.0316 µM, first compound 0.316 µM
[4] = second compound 0.0316 µM, first compound 1 µM
[5] = second compound 0.0316 µM, first compound 3.16 µM
[6] = second compound 0.0316 µM, first compound 10 µM
[7] = second compound 0.1 µM, first compound 0.0316 µM
[8] = second compound 0.1 µM, first compound 0.1 µM
[9] = second compound 0.1 µM, first compound 0.316 µM
[10] = second compound 0.1 µM, first compound 1 µM
[11] = second compound 0.1 µM, first compound 3.16 µM
[12] = second compound 0.1 µM, first compound 10 µM
[13] = second compound 0.316 µM, first compound 0.0316 µM
[14] = second compound 0.316 µM, first compound 0.1 µM
[15] = second compound 0.316 µM, first compound 0.316 µM
[16] = second compound 0.316 µM, first compound 1 µM
[17] = second compound 0.316 µM, first compound 3.16 µM
[18] = second compound 0.316 µM, first compound 10 µM
[19] = second compound 1 µM, first compound 0.0316 µM
[20] = second compound 1 µM, first compound 0.1 µM
[21] = second compound 1 µM, first compound 0.316 µM
[22] = second compound 1 µM, first compound 1 µM
[23] = second compound 1 µM, first compound 3.16 µM
[24] = second compound 1 µM, first compound 10 µM
[25] = second compound 3.16 µM, first compound 0.0316 µM
[26] = second compound 3.16 µM, first compound 0.1 µM
[27] = second compound 3.16 µM, first compound 0.316 µM
[28] = second compound 3.16 µM, first compound 1 µM
[29] = second compound 3.16 µM, first compound 3.16 µM
[30] = second compound 3.16 µM, first compound 10 µM
[31] = second compound 10 µM, first compound 0.0316 µM
[32] = second compound 10 µM, first compound 0.1 µM
[33] = second compound 10 µM, first compound 0.316 µM
[34] = second compound 10 µM, first compound 1 µM
[35] = second compound 10 µM, first compound 3.16 µM
[36] = second compound 10 µM, first compound 10 µM
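Also: spheroids exposed to agents for seven days before readout.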

Structure (SMILES): C=CC(=O)N1CCN(c2nc(=O)n(-c3c(C)ccnc3C(C)C)c3nc(-c4c(O)cccc4F)c(F)cc23)C(C)C1 (stereo not given) + CC(Nc1ncnc2nc[nH]c12)c1cc2cccc(Cl)c2c(=O)n1-c1ccccc1
- IC50 (second compound 0.0316 µM): > 10 µM
- IC50 (second compound 0.1 µM): > 10 µM
- IC50 (second compound 0.316 µM): > 10 µM
- IC50 (second compound 1 µM): > 10 µM
- IC50 (second compound 3.16 µM): > 10 µM
- IC50 (second compound 10 µM): > 10 µM
- viability, T/C [1]: 102%
- viability, T/C [2]: 102%
- viability, T/C [3]: 104%
- viability, T/C [4]: 104%
- viability, T/C [5]: 102%
- viability, T/C [6]: 99.3%
- viability, T/C [7]: 100%
- viability, T/C [8]: 95.8%
- viability, T/C [9]: 103%
- viability, T/C [10]: 111%
- viability, T/C [11]: 104%
- viability, T/C [12]: 92.5%
- viability, T/C [13]: 105%
- viability, T/C [14]: 108%
- viability, T/C [15]: 103%
- viability, T/C [16]: 98.3%
- viability, T/C [17]: 107%
- viability, T/C [18]: 86.8%
- viability, T/C [19]: 98.7%
- viability, T/C [20]: 109%
- viability, T/C [21]: 103%
- viability, T/C [22]: 106%
- viability, T/C [23]: 102%
- viability, T/C [24]: 90.5%
- viability, T/C [25]: 100%
- viability, T/C [26]: 103%
- viability, T/C [27]: 99.9%
- viability, T/C [28]: 104%
- viability, T/C [29]: 106%
- viability, T/C [30]: 89.9%
- viability, T/C [31]: 104%
- viability, T/C [32]: 108%
- viability, T/C [33]: 98.2%
- viability, T/C [34]: 100%
- viability, T/C [35]: 101%
- viability, T/C [36]: 93.6%

Structure (SMILES): CC(Cn1ccc(-c2ccc(C#N)c(Cl)c2)n1)NC(=O)c1cc(C(C)O)[nH]n1 (stereo not given) + CC(Nc1ncnc2nc[nH]c12)c1cc2cccc(Cl)c2c(=O)n1-c1ccccc1
- IC50 (second compound 0.0316 µM): > 10 µM
- IC50 (second compound 0.1 µM): > 10 µM
- IC50 (second compound 0.316 µM): > 10 µM
- IC50 (second compound 1 µM): > 10 µM
- IC50 (second compound 3.16 µM): > 10 µM
- IC50 (second compound 10 µM): > 10 µM
- viability, T/C [1]: 102%
- viability, T/C [2]: 92.6%
- viability, T/C [3]: 96.7%
- viability, T/C [4]: 90%
- viability, T/C [5]: 104%
- viability, T/C [6]: 102%
- viability, T/C [7]: 105%
- viability, T/C [8]: 96.9%
- viability, T/C [9]: 103%
- viability, T/C [10]: 101%
- viability, T/C [11]: 106%
- viability, T/C [12]: 99.4%
- viability, T/C [13]: 102%
- viability, T/C [14]: 103%
- viability, T/C [15]: 104%
- viability, T/C [16]: 103%
- viability, T/C [17]: 108%
- viability, T/C [18]: 97.4%
- viability, T/C [19]: 99.5%
- viability, T/C [20]: 102%
- viability, T/C [21]: 96.4%
- viability, T/C [22]: 98%
- viability, T/C [23]: 100%
- viability, T/C [24]: 106%
- viability, T/C [25]: 98.8%
- viability, T/C [26]: 104%
- viability, T/C [27]: 100%
- viability, T/C [28]: 104%
- viability, T/C [29]: 103%
- viability, T/C [30]: 104%
- viability, T/C [31]: 105%
- viability, T/C [32]: 95.9%
- viability, T/C [33]: 100%
- viability, T/C [34]: 99%
- viability, T/C [35]: 109%
- viability, T/C [36]: 98.7%

Structure (SMILES): CCN1CCN(Cc2ccc(Nc3ncc(F)c(-c4cc(F)c5nc(C)n(C(C)C)c5c4)n3)nc2)CC1 + CC(Nc1ncnc2nc[nH]c12)c1cc2cccc(Cl)c2c(=O)n1-c1ccccc1
- IC50 (second compound 0.0316 µM): > 1 µM
- IC50 (second compound 0.1 µM): > 1 µM
- IC50 (second compound 0.316 µM): > 1 µM
- IC50 (second compound 1 µM): > 1 µM
- IC50 (second compound 3.16 µM): > 1 µM
- IC50 (second compound 10 µM): > 1 µM
- viability, T/C (second compound 0.0316 µM, first compound 0.00316 µM): 106%
- viability, T/C (second compound 0.0316 µM, first compound 0.01 µM): 103%
- viability, T/C [1]: 103%
- viability, T/C [2]: 98.8%
- viability, T/C [3]: 109%
- viability, T/C [4]: 105%
- viability, T/C (second compound 0.1 µM, first compound 0.00316 µM): 105%
- viability, T/C (second compound 0.1 µM, first compound 0.01 µM): 105%
- viability, T/C [7]: 103%
- viability, T/C [8]: 97.6%
- viability, T/C [9]: 109%
- viability, T/C [10]: 100%
- viability, T/C (second compound 0.316 µM, first compound 0.00316 µM): 101%
- viability, T/C (second compound 0.316 µM, first compound 0.01 µM): 112%
- viability, T/C [13]: 102%
- viability, T/C [14]: 110%
- viability, T/C [15]: 106%
- viability, T/C [16]: 91.9%
- viability, T/C (second compound 1 µM, first compound 0.00316 µM): 105%
- viability, T/C (second compound 1 µM, first compound 0.01 µM): 101%
- viability, T/C [19]: 102%
- viability, T/C [20]: 104%
- viability, T/C [21]: 108%
- viability, T/C [22]: 93%
- viability, T/C (second compound 3.16 µM, first compound 0.00316 µM): 109%
- viability, T/C (second compound 3.16 µM, first compound 0.01 µM): 107%
- viability, T/C [25]: 101%
- viability, T/C [26]: 104%
- viability, T/C [27]: 100%
- viability, T/C [28]: 81.8%
- viability, T/C (second compound 10 µM, first compound 0.00316 µM): 105%
- viability, T/C (second compound 10 µM, first compound 0.01 µM): 102%
- viability, T/C [31]: 106%
- viability, T/C [32]: 96.5%
- viability, T/C [33]: 89.5%
- viability, T/C [34]: 69%

Structure (SMILES): Cn1ncc(Cl)c1-c1cc(C(=O)NC(CN)Cc2cccc(F)c2)sc1Cl (stereo not given) + CC(Nc1ncnc2nc[nH]c12)c1cc2cccc(Cl)c2c(=O)n1-c1ccccc1
- IC50 (second compound 0.0316 µM): 2.94 µM
- IC50 (second compound 0.1 µM): 3.34 µM
- IC50 (second compound 0.316 µM): 2.17 µM
- IC50 (second compound 1 µM): 2.55 µM
- IC50 (second compound 3.16 µM): 2.21 µM
- IC50 (second compound 10 µM): 2.49 µM
- viability, T/C [1]: 95.2%
- viability, T/C [2]: 98.3%
- viability, T/C [3]: 88.7%
- viability, T/C [4]: 70.6%
- viability, T/C [5]: 49.7%
- viability, T/C [6]: 32.1%
- viability, T/C [7]: 103%
- viability, T/C [8]: 104%
- viability, T/C [9]: 92.7%
- viability, T/C [10]: 77.5%
- viability, T/C [11]: 50.8%
- viability, T/C [12]: 30.9%
- viability, T/C [13]: 106%
- viability, T/C [14]: 108%
- viability, T/C [15]: 90.8%
- viability, T/C [16]: 60.4%
- viability, T/C [17]: 48.5%
- viability, T/C [18]: 27.1%
- viability, T/C [19]: 111%
- viability, T/C [20]: 101%
- viability, T/C [21]: 90.1%
- viability, T/C [22]: 61.8%
- viability, T/C [23]: 49.9%
- viability, T/C [24]: 31%
- viability, T/C [25]: 105%
- viability, T/C [26]: 105%
- viability, T/C [27]: 89.4%
- viability, T/C [28]: 65.4%
- viability, T/C [29]: 44.4%
- viability, T/C [30]: 24.5%
- viability, T/C [31]: 97.2%
- viability, T/C [32]: 95.8%
- viability, T/C [33]: 89.5%
- viability, T/C [34]: 75.4%
- viability, T/C [35]: 43%
- viability, T/C [36]: 25%

Structure (SMILES): Cn1nccc1Nc1nccc(-c2ccn(C(CO)c3ccc(Cl)c(F)c3)c(=O)c2)n1 (stereo not given) + CC(Nc1ncnc2nc[nH]c12)c1cc2cccc(Cl)c2c(=O)n1-c1ccccc1
- IC50 (second compound 0.0316 µM): > 10 µM
- IC50 (second compound 0.1 µM): > 10 µM
- IC50 (second compound 0.316 µM): > 10 µM
- IC50 (second compound 1 µM): > 10 µM
- IC50 (second compound 3.16 µM): 9.79 µM
- IC50 (second compound 10 µM): 5.14 µM
- viability, T/C [1]: 101%
- viability, T/C [2]: 98.8%
- viability, T/C [3]: 100%
- viability, T/C [4]: 97.7%
- viability, T/C [5]: 87.9%
- viability, T/C [6]: 60.2%
- viability, T/C [7]: 101%
- viability, T/C [8]: 99.4%
- viability, T/C [9]: 97%
- viability, T/C [10]: 93.2%
- viability, T/C [11]: 86.7%
- viability, T/C [12]: 65.2%
- viability, T/C [13]: 107%
- viability, T/C [14]: 107%
- viability, T/C [15]: 86.5%
- viability, T/C [16]: 93.8%
- viability, T/C [17]: 89.4%
- viability, T/C [18]: 61.3%
- viability, T/C [19]: 109%
- viability, T/C [20]: 99.5%
- viability, T/C [21]: 99.3%
- viability, T/C [22]: 90.8%
- viability, T/C [23]: 92.6%
- viability, T/C [24]: 56.5%
- viability, T/C [25]: 107%
- viability, T/C [26]: 105%
- viability, T/C [27]: 100%
- viability, T/C [28]: 92.2%
- viability, T/C [29]: 87.1%
- viability, T/C [30]: 48.3%
- viability, T/C [31]: 109%
- viability, T/C [32]: 99.5%
- viability, T/C [33]: 92.1%
- viability, T/C [34]: 83.8%
- viability, T/C [35]: 64.1%
- viability, T/C [36]: 31.4%
